Reference: PubChem BioAssay (NCI)
Where “and” joins values, the source holds several entries; their conditions need not be identical. Identical values can stand only once.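 Tested at 5 concentrations; 48 h exposure; 96-well plates; endpoints linearly interpolated, else capped at highest concentration. Abbreviation: GI50, concentration required for 50% inhibition of growth. The concentration for full growth arrest is given as TGI.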

Experiments:
Test in all cases: growth of human tumour cells (NCI), 48 h
[1] = system: MDA-MB-468 breast
[2] = system: SK-OV-3 ovarian
[3] = system: T-47D breast
[4] = system: EKVX NSCLC
[5] = system: UO-31 renal
[6] = system: RPMI-8226 leukemia
[7] = system: HOP-62 NSCLC
[8] = system: A498 renal
[9] = system: SF-268 CNS
[10] = system: CCRF-CEM leukemia
[11] = system: SK-MEL-28 melanoma
[12] = system: HT29 colon
[13] = system: IGROV1 ovarian
[14] = system: ACHN renal
[15] = system: MDA-MB-435
[16] = system: 786-0 renal
[17] = system: SNB-19 CNS
[18] = system: COLO 205 colon
[19] = system: MCF7 breast
[20] = system: HL-60(TB) leukemia
[21] = system: DU-145 prostate
[22] = system: SW-620 colon
[23] = system: LOX IMVI melanoma
[24] = system: TK-10 renal
[25] = system: SF-295 CNS
[26] = system: OVCAR-4 ovarian
[27] = system: OVCAR-8 ovarian
[28] = system: PC-3 prostate
[29] = system: SR leukemia
[30] = system: NCI-H23 lung
[31] = system: NCI-H522 lung
[32] = system: OVCAR-5 ovarian
[33] = system: UACC-62 melanoma
[34] = system: A549 NSCLC
[35] = system: BT-549 breast
[36] = system: NCI-H226 lung
[37] = system: MOLT-4 leukemia
[38] = system: OVCAR-3 ovarian
[39] = system: HCC-2998 colon
[40] = system: CAKI-1 renal
[41] = system: U251 CNS
[42] = system: RXF 393 renal
[43] = system: KM12 colon
[44] = system: MDA-MB-231 breast
[45] = system: HOP-92 NSCLC
[46] = system: HS 578T breast
[47] = system: SK-MEL-2 melanoma
[48] = system: SK-MEL-5 melanoma
[49] = system: K-562 leukemia
[50] = system: M14 melanoma
[51] = system: HCT-116 colon
[52] = system: SN12C renal
[53] = system: SF-539 CNS
[54] = system: MALME-3M melanoma
[55] = system: HCT-15 colon
[56] = system: NCI-H460 lung
[57] = system: UACC-257 melanoma

## CC(C)COC(=O)c1ccc2[nH]c(O)c(C=Nc3ccc(S(N)(=O)=O)cc3)c2c1
[1]
  GI50: 1570 nM
  TGI: 4.36 µM

## CC(C)CCN[C@@H]1CCc2cc(O)c(N3CC(=O)NS3(=O)=O)c(F)c2C1
[1]
  GI50: > 100000 nM
  TGI: > 100 µM

## COc1cc(/C=C/C(=O)c2cccnc2Nc2ccc(F)cc2)cc(OC)c1OC
[1]
  GI50: 1770 nM
  TGI: 5.67 µM

## OCCN1CCN(CC/C=C2\c3ccccc3Sc3ccc(Cl)cc32)CC1
[1]
  GI50: 1540 nM and 1820 nM
  TGI: 3.18 µM and 4.05 µM

## COc1ccc(C2=CC(c3ccc(OC)c(OC)c3)c3c(c4ccccc4oc3=O)O2)cc1OC (stereo not drawn)
[1]
  GI50: 475 nM
  TGI: 8.3 µM

## CN(C)CCN1C(=O)c2cccc3cccc(c23)C1=O
[1]
  GI50: 10300 nM
  TGI: > 25 µM

## COc1ccc(OC)c(Nc2nc(-c3c(C)nc4sccn34)cs2)c1
[1]
  GI50: 1700 nM
  TGI: 75.3 µM

## Cc1cccc2c(N)c3ccccc3nc12
[1]
  GI50: 1440 nM
  TGI: 4.63 µM

## c1ccc(CNc2nc(Nc3ccccc3)nc3ccccc23)cc1
[1]
  GI50: 1090 nM
  TGI: 2.56 µM

## CCO/C=N/C1=C(C#N)C(c2ccc(OC)cc2)c2sc3c(C)cccc3c2O1 (stereo not drawn)
[1]
  GI50: 276 nM
  TGI: 5.69 µM

## CCN(CC)CCSCCCNc1c2ccc(Cl)cc2nc2ccc(OC)cc12
[1]
  GI50: 1500 nM
  TGI: 3.05 µM

## Cn1c(=O)c(Oc2ccc(F)cc2F)cc2cnc(NCCS(C)(=O)=O)nc21
[1]
  GI50: > 25000 nM
  TGI: > 25 µM

## Oc1ccc(Cl)cc1CNc1nc2ccccc2[nH]1
[1]
  GI50: 5720 nM
  TGI: 21.9 µM

## COc1ccc(Nc2cc(C)nc(N3CCN(c4ccnc5cc(Cl)ccc45)CC3)n2)cc1
[1]
  GI50: 1770 nM
  TGI: 5.57 µM

## Cn1cnc([N+](=O)[O-])c1Sc1ncn[nH]1
[1]
  GI50: 21000 nM
  TGI: > 100 µM

## COc1cc(Cl)cc(-c2nn(-c3cccc(NC(=O)Nc4ccc(Cl)c(C(F)(F)F)c4)c3)cc2-c2ccncc2)c1
[1]
  GI50: 990 nM
  TGI: 5.47 µM

## COc1cc(/C=N/NC(=O)c2cn(C3CC3)c3c(OC)c(N4CC5CCCNC5C4)c(F)cc3c2=O)ccc1O (stereo not drawn)
[1]
  GI50: 1630 nM
  TGI: 3.11 µM

## CC(=O)Oc1ccc(C(c2ccc(OC(C)=O)cc2)c2ccccn2)cc1
[1]
  GI50: 458 nM and 1340 nM
  TGI: 25 µM and 45.2 µM

## CCCNc1nc2ccccc2c2c1S(=O)(=O)c1ccc(Cl)cc1C2=O
[1]
  GI50: 195 nM
  TGI: 1.47 µM

## COc1cc(/C=C/C(=O)c2cnn(-c3cc(=O)[nH]c4ccc(C)cc34)c2C)cc(OC)c1OC
[2]
  GI50: 3.91 µM
  TGI: 13.4 µM
[3]
  GI50: 2570 nM
  TGI: 16.2 µM
[4]
  GI50: 2840 nM
  TGI: 12.2 µM
[5]
  GI50: 2980 nM
  TGI: 13.1 µM
[6]
  GI50: 2020 nM
  TGI: 7.59 µM
[7]
  GI50: 3.56 µM
  TGI: 12.5 µM
[8]
  GI50: 18 µM
  TGI: 35.9 µM
[9]
  GI50: 3.43 µM
  TGI: 14.8 µM
[10]
  GI50: 2280 nM
  TGI: 8.76 µM
[11]
  GI50: 3.7 µM
  TGI: 13.2 µM
[12]
  GI50: 3.07 µM
  TGI: 10 µM
[13]
  GI50: 2410 nM
  TGI: 7.14 µM
[14]
  GI50: 1720 nM
  TGI: 3.79 µM
[15]
  GI50: 3.02 µM
  TGI: 12.1 µM
[16]
  GI50: 3.52 µM
  TGI: 14.6 µM
[17]
  GI50: 3.11 µM
  TGI: 12 µM
[18]
  GI50: 2770 nM
  TGI: 8.8 µM
[19]
  GI50: 2700 nM
  TGI: 11.4 µM
[20]
  GI50: 2290 nM
  TGI: 11.3 µM
[21]
  GI50: 3.39 µM
  TGI: 12.6 µM
[22]
  GI50: 3.06 µM
  TGI: 10.5 µM
[23]
  GI50: 1540 nM
  TGI: 3.76 µM
[24]
  GI50: 3.54 µM
  TGI: 11.5 µM
[25]
  GI50: 3 µM
  TGI: 11.1 µM
[26]
  GI50: 3.85 µM
  TGI: 48.8 µM
[27]
  GI50: 2000 nM
  TGI: 4.63 µM
[28]
  GI50: 6.04 µM
  TGI: 26.8 µM
[29]
  GI50: 1760 nM
  TGI: 11.3 µM
[30]
  GI50: 1890 nM
  TGI: 4.3 µM
[31]
  GI50: 2650 nM
  TGI: 8.02 µM
[32]
  GI50: 3.25 µM
  TGI: 11.6 µM
[33]
  GI50: 2850 nM
  TGI: 10.9 µM
[34]
  GI50: 3.17 µM
  TGI: 11.2 µM
[35]
  GI50: 2430 nM
  TGI: 8.55 µM
[36]
  GI50: 2640 nM
  TGI: 7.79 µM
[37]
  GI50: 2530 nM
  TGI: 10.4 µM
[38]
  GI50: 2790 nM
  TGI: 7.95 µM
[39]
  GI50: 2980 nM
  TGI: 9.14 µM
[40]
  GI50: 3.75 µM
  TGI: 18.6 µM
[41]
  GI50: 2420 nM
  TGI: 8.48 µM
[42]
  GI50: 2090 nM
  TGI: 5.13 µM
[43]
  GI50: 3.24 µM
  TGI: 10.6 µM
[44]
  GI50: 3.1 µM
  TGI: 11.9 µM
[45]
  GI50: 4.34 µM
  TGI: 23.4 µM
[46]
  GI50: 3.56 µM
  TGI: > 100 µM
[47]
  GI50: 2900 nM
  TGI: 11 µM
[48]
  GI50: 2390 nM
  TGI: 7.34 µM
[49]
  GI50: 2240 nM
  TGI: > 100 µM
[50]
  GI50: 3.16 µM
  TGI: 13.2 µM
[51]
  GI50: 3.63 µM
  TGI: 12.9 µM
[52]
  GI50: 2570 nM
  TGI: 10.2 µM
[53]
  GI50: 2110 nM
  TGI: 4.79 µM
[54]
  GI50: 3.89 µM
  TGI: 16.7 µM
[55]
  GI50: 1920 nM
  TGI: 5.01 µM
[56]
  GI50: 1860 nM
  TGI: 4.38 µM
[1]
  GI50: 1580 nM
  TGI: 3.63 µM
[57]
  GI50: 4.85 µM
  TGI: 20.4 µM

## CCn1c2ccccc2c2cc(C(O)c3cccc4ncccc34)ccc21 (stereo not drawn)
[1]
  GI50: 32.6 nM
  TGI: 0.849 µM

## O=C(Nc1ccc(I)cc1F)c1cc(Cl)ccc1O
[1]
  GI50: 361 nM
  TGI: 1.73 µM

## O=S(=O)(NCCNc1nccc(-c2c(-c3ccc(F)cc3)nc3sccn23)n1)c1ccccc1
[1]
  GI50: 4340 nM
  TGI: > 100 µM

## C#Cc1nc(C2=C(C)C(OC(C)=O)/C(=N/OC(C)=O)C2)cs1 (stereo not drawn)
[1]
  GI50: 2070 nM
  TGI: 8.72 µM

## CCN(CC)CCOc1ccc(C(=O)/C=C\c2ccc(Cl)cc2Cl)cc1
[1]
  GI50: 5050 nM
  TGI: 19 µM

## CO[C@H]1CC(c2ccc[nH]2)=N[C@]12O[C@@H](C)C[C@@H]1CCCCCCCc3ccc([nH]3)[C@H]12
[1]
  GI50: 444 nM
  TGI: 3.62 µM

## C=C1c2c(Cl)ccc(O)c2C(O)=C2C(=O)[C@]3(O)C(O)=C(C(N)=O)C(=O)[C@@H](N(C)C)[C@@H]3[C@@H](O)[C@H]12
[1]
  GI50: 846 nM
  TGI: 2.56 µM

## COc1ccc(-c2nn(-c3cccc(NC(=O)c4ccc(N5CCOCC5)c(C(F)(F)F)c4)c3)cc2-c2ccncc2)cc1Cl
[1]
  GI50: 6880 nM
  TGI: > 50 µM

## C/C=C(\C)C(=O)N[C@H]1C(O)C[C@]2(C)C3CC[C@@]4(C)C(CC[C@@H]4C(C)N(C)C)C3CCC2C1O (stereo partly drawn)
[1]
  GI50: 1700 nM
  TGI: 4.54 µM

## O=C1NCCS(=O)(=O)/C1=C\C=C\c1cccc(C(F)(F)F)c1
[1]
  GI50: 1560 nM
  TGI: 4.53 µM

## CCOC(=O)/C(C#N)=C/c1ccc2c(c1)CC1(C2)Cc2cc(CC)c(C(C)O)cc2C1 (stereo not drawn)
[1]
  GI50: 12400 nM
  TGI: 36.8 µM

## Cc1nc(Nc2nc3ccccc3o2)nc(-c2cccc([N+](=O)[O-])c2)c1C(=O)Nc1ccc(F)c(Cl)c1
[1]
  GI50: 1280 nM
  TGI: 6.44 µM

## COc1ccc2nc(NC(=O)c3cccnc3Nc3cc(OC)c(OC)c(OC)c3)sc2c1
[1]
  GI50: 17800 nM
  TGI: 62.7 µM
